Results as given in ChEMBL document CHEMBL1133263, “A simple polar deacetylated caloporoside derivative is a positive modulator of the GABA(A) chloride channel complex in cortical mammalian neurones” (Bioorg Med Chem Lett, 2000).

Organism: Rattus norvegicus
Experiment: Concentration required reduce reversibly the incidence of both spontaneous excitatory post-synaptic currents and inhibitory post-synaptic currents
Type: functional

With `CCCCCCCCO[C@H]1O[C@@H](CO)[C@@H](O)[C@H](O)[C@H]1O` the Concentration was 100 µM.
